Read-outs that look alike come from different tables or passages of the source.
Columns and labels:
Assay type in all cases: in vivo
Brassica napus (BRSNW) [1] = conditions: crop plant compatibility, in comparison to untreated controls
How it was run: (§1)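 Crop injury rated visually in percent against untreated plants roughly 3 weeks after treatment (0% no effect, 100% plants dead). Compounds, as WP or EC with 0.5% additive in 600 l/ha water, were applied to the covering soil right after sowing; greenhouse growth. Suffixes a, b, c denote different dosages.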

Glycine max (GLXMA) [2] = conditions: pre-emergence, crop plant compatibility, in comparison to untreated controls
How it was run: as §1

Oryza sativa (ORYSA) [3] = conditions: pre-emergence, crop plant compatibility, in comparison to untreated controls
How it was run: as §1

[4] = system: Triticum aestivum (TRZAS); conditions: pre-emergence, crop plant compatibility, in comparison to untreated controls
How it was run: as §1

Zea mays (ZEAMX) [5] = conditions: pre-emergence, crop plant compatibility, in comparison to untreated controls
How it was run: as §1

Oryza sativa (ORYSA) [6] = conditions: crop plant compatibility
How it was run: (§2)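 Percent effect on the crop was judged by eye against untreated controls, where 0% means like control and 100% means dead plants. Plants had been sprayed post-emergence at the one-leaf stage and then kept under optimum greenhouse conditions for about 3 weeks.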

[7] = system: Triticum aestivum (TRZAS); conditions: crop plant compatibility, effect vs untreated controls
How it was run: as §2

Zea mays (ZEAMX) [8] = conditions: for Post-emergence action against ZEAMX in % (crop plant compatibility): 20 g/ha, effect in comparison to untreated controls; for Post-emergence action against ZEAMX in %: crop plant compatibility, effect vs untreated controls
How it was run: as §2

Glycine max (GLXMA) [9] = test: Post-emergence crop plant compatibility, GLXMA; conditions: post-emergence, effect in comparison to untreated controls
Procedure: (§3) Seeds of monocotyledonous and dicotyledonous weeds and crop plants are placed in sandy loam in plastic or organic planting pots, covered with soil and cultivated in a greenhouse under controlled growth conditions. 2 to 3 weeks after sowing, the test plants are treated at the one-leaf stage. The compounds of the invention, formulated in the form of wettable powders (WP) or as emulsion concentrates (EC), are then sprayed onto the green parts of the plants as aqueous suspension or emulsion with addition of 0.5% additive at a water application rate of 600 l/ha (converted). After the test plants have been kept in the greenhouse under optimum growth conditions for about 3 weeks, the activity of the preparations is rated visually in comparison to untreated controls. For example, 100% activity=the plants have died, 0% activity=like control plants.
(§4) The observed effects on selected crop plants are reported here in comparison to the untreated controls (values in %). The appendices “a”, “b” and “c” give differentiation by dosage used with otherwise the same crop plants tested.

Brassica napus (BRSNW) [10] = test: Post-emergence crop plant compatibility, BRSNW; conditions: effect in comparison to untreated controls
Procedure: as §3, §4

[11] = system: Alopecurus myosuroides (ALOMY); test: Pre-emergence herbicidal action against ALOMY; conditions: 320 g/ha; scored visually after about 3 weeks; 100% = plants have died
How it was run: (§5)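 Application rates ran to 320 g/ha or lower, with several dosages tested on the same weeds. The compound, as wettable powder or emulsion concentrate, is sprayed pre-emergence onto soil over sown seeds; greenhouse growth follows, and effect is rated visually after roughly 3 weeks.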

[12] = system: Amaranthus retroflexus (AMARE); test: Pre-emergence herbicidal action against AMARE; conditions: 320 g/ha, visual scoring after about 3 weeks vs untreated controls
How it was run: as §5

Lolium rigidum (LOLRI) = test: Pre-emergence herbicidal action against LOLRI; conditions: dosage 320 g/ha
How it was run: as §5

Setaria viridis (SETVI) = test: Pre-emergence herbicidal action against SETVI; conditions: dosage 320 g/ha
How it was run: as §5

[13] = system: Verconica persica (VERPE); test: Pre-emergence herbicidal action against VERPE; conditions: dosage 320 g/ha
How it was run: as §5

Viola tricolor (VIOTR) = test: Pre-emergence herbicidal action against VIOTR; conditions: 320 g/ha, Viola tricolor
How it was run: as §5

[14] = system: Amaranthus retroflexus (AMARE); test: Post-emergence herbicidal action against AMARE; conditions: 80 g/ha, visual rating about 3 weeks after treatment vs untreated controls (100% = plants have died, 0% = like control plants)
How it was run: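 Greenhouse plants sprayed at the one-leaf stage, 2–3 weeks after sowing, with WP or EC formulations plus 0.5% additive at 600 l/ha water. Activity rated visually after about 3 weeks versus untreated controls (100% = dead, 0% = like control), at 320 g/ha or lower.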

[15] = 20 g/ha, effect vs untreated controls
[16] = 80 g/ha, effect in comparison to untreated controls

| SMILES | Pre-emergence action against BRSNW in % (Brassica napus (BRSNW) [1]; 80 g/ha) | Pre-emergence action against BRSNW in % (Brassica napus (BRSNW) [1]; 320 g/ha) | Pre-emergence action against GLXMA in % (Glycine max (GLXMA) [2]; 80 g/ha) | Pre-emergence action against GLXMA in % (Glycine max (GLXMA) [2]; 320 g/ha) | Pre-emergence action against ORYSA in % (Oryza sativa (ORYSA) [3]; 80 g/ha) | Pre-emergence action against ORYSA in % (Oryza sativa (ORYSA) [3]; 320 g/ha) | Pre-emergence action against TRZAS in % ([4]; 80 g/ha) | Pre-emergence action against TRZAS in % ([4]; 320 g/ha) | Pre-emergence action against ZEAMX in % (Zea mays (ZEAMX) [5]; 80 g/ha) | Pre-emergence action against ZEAMX in % (Zea mays (ZEAMX) [5]; 320 g/ha) | Post-emergence action against ORYSA in % (Oryza sativa (ORYSA) [6]; [15]) | Post-emergence action against ORYSA in % (Oryza sativa (ORYSA) [6]; [16]) | Post-emergence action against TRZAS in % ([7]; 20 g/ha) | Post-emergence action against TRZAS in % ([7]; 80 g/ha) | Post-emergence action against ZEAMX in % (crop plant compatibility) (Zea mays (ZEAMX) [8]) | Post-emergence action against ZEAMX in % (Zea mays (ZEAMX) [8]; 80 g/ha) | Post-emergence action against BRSNW in % (Brassica napus (BRSNW) [10]; 20 g/ha) | Post-emergence action against BRSNW in % (Brassica napus (BRSNW) [10]; 80 g/ha) | further results |
| --- | --- | --- | --- | --- | --- | --- | --- | --- | --- | --- | --- | --- | --- | --- | --- | --- | --- | --- | --- |
| CCOC(=O)COc1nn(-c2ncccc2F)c(-c2ccc(F)nc2)c1I [Example I-55] | 0% | 0% | 0% | 0% | 0% | 0% | 0% | 0% | 0% | 0% | 0% | 0% | 0% | 0% | 0% | 0% | 0% | 0% | Post-emergence action against GLXMA in % (Glycine max (GLXMA) [9]; 20 g/ha): 0%; Post-emergence action against GLXMA in % (Glycine max (GLXMA) [9]; 80 g/ha): 0% |
| COC(=O)CNC(=O)COc1nn(-c2ccccn2)c(-c2ccc(F)nc2)c1C1CC1 [Example I-70] | 20% |  | 10% |  | 0% | 10% | 10% |  | 0% | 0% | 0% | 0% | 0% | 10% | 0% | 10% | 20% |  | Pre-emergence action against ALOMY [11]: 90%; Pre-emergence action against AMARE in % [12]: 90%; Pre-emergence action against LOLRI in % (Lolium rigidum (LOLRI)): 90%; Pre-emergence action against SETVI in % (Setaria viridis (SETVI)): 90%; Pre-emergence action against VERPE in % [13]: 80%; Pre-emergence action against VIOTR in % (Viola tricolor (VIOTR)): 90%; Post-emergence action against AMARE in % [14]: 90% |
| O=C(O)C1CCN(C(=O)COc2nn(-c3ccccn3)c(-c3ccc(F)nc3)c2Br)CC1 [Example I-62] | 0% |  |  |  | 0% | 0% | 0% | 0% | 0% |  |  | 0% |  | 0% |  |  |  | 20% | Post-emergence action against ORYSA in % (Oryza sativa (ORYSA) [6]; 320 g/ha, effect in comparison to untreated controls): 0%; Post-emergence action against TRZAS in % ([7]; 320 g/ha): 0%; Post-emergence action against ZEAMX in % (Zea mays (ZEAMX) [8]; 320 g/ha): 20% |
| COC(=O)C1CCN(C(=O)COc2nn(-c3ccccn3)c(-c3ccc(F)nc3)c2Br)C1 (centres unmarked) [Example I-109] | 10% | 10% | 20% | 20% | 10% | 10% | 0% | 10% | 10% | 10% | 0% | 0% | 0% | 10% | 10% | 10% | 0% | 10% |  |
